In patent US20150105252A1, “SUBSTITUTED PYRAZOLES AS HERBICIDES” (E I DU PONT DE NEMOURS AND COMPANY, priority 2013, published 2015):

What was measured:
blackgrass [1] = assay: Test C preemergence; format: in vivo, Alopecurus myosuroides; conditions: for Blackgrass plant response rating / Plant response rating, Blackgrass: preemergence; for Plant response rating, Blackgrass: 125 g ai/ha, scale 0 to 100, 0 = no effect, 100 = complete control
How it was run: (§1)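 Scores of 0 (no effect) to 100 (complete control) were assigned by eye after 13–15 days, comparing treated pots with controls. Soil-applied (preemergence) treatments went onto seeds in loam and sand; foliar (postemergence) treatments onto 1- to 4-leaf plants in peat medium.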

ragweed = assay: Test C postemergence; format: in vivo, Ambrosia elation
How it was run: as §1

pigweed [2] = assay: Test C postemergence; format: in vivo, Amaranthus retroflexus; conditions: for Pigweed plant response rating / Plant response rating, Pigweed: postemergence; for Pigweed plant response rating: 62 g ai/ha, scale 0 to 100
How it was run: as §1

morningglory [3] = assay: Test C postemergence; format: in vivo, Ipomoea coccinea; conditions: for Plant response rating (scale of 0 to 100 where 0 is no effect and 100 is complete control), Morningglory: Postemergence, 31 g ai/ha, visually evaluated after 13 to 15 days; for Morningglory plant response rating / Plant response rating, Morningglory: postemergence; for Morningglory plant response rating: 62 g ai/ha, scale 0 to 100
How it was run: as §1

barnyardgrass = assay: Test C preemergence; format: in vivo, Echinochloa crus-galli; conditions: for Barnyardgrass plant response rating / Plant response rating, Barnyardgrass: preemergence; for Plant response rating, Barnyardgrass: 125 g ai/ha, scale 0 to 100, 0 = no effect, 100 = complete control
How it was run: as §1

ryegrass, Italian = assay: Test C preemergence; format: in vivo, Lolium multiflorum; conditions: for Ryegrass, Italian plant response rating / Plant response rating, Ryegrass, Italian: preemergence; for Plant response rating, Ryegrass, Italian: 125 g ai/ha, scale 0 to 100, 0 = no effect, 100 = complete control
How it was run: as §1

johnsongrass = assay: Test C preemergence; format: in vivo, Sorghum halepense; conditions: for Johnsongrass plant response rating / Plant response rating, Johnsongrass: preemergence; for Plant response rating, Johnsongrass: 125 g ai/ha, scale 0 to 100, 0 = no effect, 100 = complete control
How it was run: as §1

wheat = assay: Test A preemergence; format: in vivo, Triticum aestivum; conditions: preemergence
How it was run: (§2)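 Growth medium: loam soil blended with sand. Preemergence treatment used a directed soil spray right after planting; postemergence treatment targeted seedlings at one to two leaves (2–10 cm height). Response was judged by eye relative to untreated plants about 10 days later on a 0–100 control scale.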

blackgrass [4] = assay: Test C postemergence; format: in vivo, Alopecurus myosuroides; conditions: for Plant response rating (scale of 0 to 100 where 0 is no effect and 100 is complete control), Blackgrass: Postemergence, 31 g ai/ha, visually evaluated after 13 to 15 days; for Blackgrass plant response rating / Plant response rating, Blackgrass: postemergence; for Blackgrass plant response rating: 62 g ai/ha, scale 0 to 100
How it was run: as §1

morningglory [5] = assay: Test C preemergence; format: in vivo, Ipomoea coccinea; conditions: for Morningglory plant response rating / Plant response rating, Morningglory: preemergence; for Plant response rating, Morningglory: 125 g ai/ha, scale 0 to 100, 0 = no effect, 100 = complete control
How it was run: as §1

corn = assay: Test A preemergence; format: in vivo, Zea mays; conditions: preemergence
How it was run: as §2

pigweed [6] = assay: Test C preemergence; format: in vivo, Amaranthus retroflexus; conditions: for Pigweed plant response rating / Plant response rating, Pigweed: preemergence; for Plant response rating, Pigweed: 125 g ai/ha, scale 0 to 100, 0 = no effect, 100 = complete control
How it was run: as §1

morningglory [7] = assay: Test A preemergence; format: in vivo, Ipomoea spp.; conditions: preemergence
How it was run: as §2

[8] = 31 g ai/ha, visual rating, scale 0 to 100 (0 no effect, 100 complete control), 13 to 15 days
[9] = 62 g ai/ha, scale 0 to 100 (0 no effect, 100 complete control), 13 to 15 days
[10] = Postemergence, 31 g ai/ha, visually evaluated after 13 to 15 days
[11] = postemergence, 250 g ai/ha, scale 0 to 100 (0 no effect, 100 complete control)
[12] = postemergence, 125 g ai/ha, scale 0 to 100, 0 no effect, 100 complete control
[13] = 250 g ai/ha, scale 0 to 100 (0 no effect, 100 complete control)
[14] = 125 g ai/ha, scale 0 to 100, 0 no effect, 100 complete control
[15] = 125 g ai/ha, visual injury, 0 to 100 scale, approx. 10 days
[16] = 500 g ai/ha, visual injury after approx. 10 days, 0 to 100 scale (0 no effect, 100 complete control)
[17] = 250 g ai/ha, scale 0 to 100, 0 is no effect, 100 is complete control
[18] = 125 g ai/ha, visual injury approx. 10 days after treatment

CCONC(=O)c1cc(CC)n(Cc2ccnc(OC(F)F)c2)n1 [Compound 131]
Plant response rating (scale of 0 to 100), Blackgrass (blackgrass [1]; Preemergence, 250 g ai/ha): 98 | Blackgrass plant response rating (blackgrass [1]; [8]): 40 | Blackgrass plant response rating (blackgrass [1]; [9]): 80 | Plant response rating, Blackgrass (blackgrass [1]; 13 to 15 days): 95 | Plant response rating (scale of 0 to 100 where 0 is no effect and 100 is complete control), Ragweed (ragweed; [10]): 5 | Ragweed plant response rating (ragweed; postemergence, 62 g ai/ha, scale 0 to 100): 30 | Plant response rating, Ragweed (ragweed; [11]): 85 | Plant response rating, Ragweed (ragweed; [12]): 60 | Plant response rating (scale of 0 to 100 where 0 is no effect and 100 is complete control), Pigweed (pigweed [2]; [10]): 35 | Pigweed plant response rating (pigweed [2]): 65 | Plant response rating, Pigweed (pigweed [2]; [13]): 98 | Plant response rating, Pigweed (pigweed [2]; [14]): 90 | Plant response rating (scale of 0 to 100 where 0 is no effect and 100 is complete control), Morningglory (morningglory [3]): 35 | Morningglory plant response rating (morningglory [3]): 55 | Plant response rating, Morningglory (morningglory [3]; [13]): 70 | Plant response rating, Morningglory (morningglory [3]; [14]): 65 | Plant response rating (scale of 0 to 100), Barnyardgrass (barnyardgrass; Preemergence, 250 g ai/ha): 100 | Barnyardgrass plant response rating (barnyardgrass; 31 g ai/ha, scale 0 to 100 (0 no effect, 100 complete control), 13 to 15 days): 55 | Barnyardgrass plant response rating (barnyardgrass; [9]): 95 | Plant response rating, Barnyardgrass (barnyardgrass; 13 to 15 days): 100 | Plant response rating (scale of 0 to 100), Ryegrass, Italian (ryegrass, Italian; Preemergence, 250 g ai/ha): 95 | Ryegrass, Italian plant response rating (ryegrass, Italian; [8]): 15 | Ryegrass, Italian plant response rating (ryegrass, Italian; [9]): 55 | Plant response rating, Ryegrass, Italian (ryegrass, Italian; 13 to 15 days): 85 | Plant response rating (scale of 0 to 100), Johnsongrass (johnsongrass; Preemergence, 250 g ai/ha): 95 | Johnsongrass plant response rating (johnsongrass; [8]): 20 | Johnsongrass plant response rating (johnsongrass; [9]): 65 | Plant response rating, Johnsongrass (johnsongrass; 13 to 15 days): 85 | Wheat plant response rating (wheat; [15]): 90 | Wheat plant response rating (wheat; [16]): 100 | Plant response rating (scale of 0 to 100 where 0 is no effect and 100 is complete control), Blackgrass (blackgrass [4]): 5 | Blackgrass plant response rating (blackgrass [4]): 5 | Plant response rating, Blackgrass (blackgrass [4]; [13]): 20 | Plant response rating, Blackgrass (blackgrass [4]; [14]): 10 | Plant response rating (scale of 0 to 100), Morningglory (morningglory [5]; Preemergence, 250 g ai/ha): 100 | Morningglory plant response rating (morningglory [5]; [8]): 40 | Morningglory plant response rating (morningglory [5]; [9]): 100 | Plant response rating, Morningglory (morningglory [5]; 13 to 15 days): 100 | Corn plant response rating (corn; [15]): 60 | Corn plant response rating (corn; [16]): 90 | Plant response rating (scale of 0 to 100), Pigweed (pigweed [6]; Preemergence, 250 g ai/ha): 100 | Pigweed plant response rating (pigweed [6]; [8]): 100 | Pigweed plant response rating (pigweed [6]; [9]): 100 | Plant response rating, Pigweed (pigweed [6]; 13 to 15 days): 100 | Morningglory plant response rating (morningglory [7]; [15]): 100 | Morningglory plant response rating (morningglory [7]; [16]): 100

CCCNC(=O)c1cc(CCF)n(Cc2ccnc(C(F)(F)F)c2)n1 [Compound 177]
Blackgrass plant response rating (blackgrass [1]; [8]): 50 | Blackgrass plant response rating (blackgrass [1]; [9]): 85 | Plant response rating, Blackgrass (blackgrass [1]; 13 to 15 days): 90 | Blackgrass plant response rating (blackgrass [1]; [17]): 90 | Plant response rating, Ragweed (ragweed; [11]): 75 | Plant response rating, Ragweed (ragweed; [12]): 70 | Pigweed plant response rating (pigweed [2]): 40 | Plant response rating, Pigweed (pigweed [2]; [13]): 85 | Plant response rating, Pigweed (pigweed [2]; [14]): 75 | Plant response rating (scale of 0 to 100 where 0 is no effect and 100 is complete control), Morningglory (morningglory [3]): 60 | Morningglory plant response rating (morningglory [3]): 40 | Plant response rating, Morningglory (morningglory [3]; [13]): 80 | Plant response rating, Morningglory (morningglory [3]; [14]): 85 | Barnyardgrass plant response rating (barnyardgrass; [8]): 65 | Barnyardgrass plant response rating (barnyardgrass; [9]): 100 | Plant response rating, Barnyardgrass (barnyardgrass; 13 to 15 days): 100 | Barnyardgrass plant response rating (barnyardgrass; [17]): 100 | Ryegrass, Italian plant response rating (ryegrass, Italian; [8]): 5 | Ryegrass, Italian plant response rating (ryegrass, Italian; [9]): 40 | Plant response rating, Ryegrass, Italian (ryegrass, Italian; 13 to 15 days): 85 | Ryegrass, Italian plant response rating (ryegrass, Italian; [17]): 90 | Johnsongrass plant response rating (johnsongrass; [8]): 10 | Johnsongrass plant response rating (johnsongrass; [9]): 70 | Plant response rating, Johnsongrass (johnsongrass; 13 to 15 days): 100 | Johnsongrass plant response rating (johnsongrass; [17]): 98 | Wheat plant response rating (0 to 100 scale) (wheat; [18]): 10 | Wheat plant response rating (wheat; [16]): 100 | Plant response rating (scale of 0 to 100 where 0 is no effect and 100 is complete control), Blackgrass (blackgrass [4]): 20 | Blackgrass plant response rating (blackgrass [4]): 15 | Plant response rating, Blackgrass (blackgrass [4]; [13]): 35 | Plant response rating, Blackgrass (blackgrass [4]; [14]): 20 | Morningglory plant response rating (morningglory [5]; [8]): 25 | Morningglory plant response rating (morningglory [5]; [9]): 95 | Plant response rating, Morningglory (morningglory [5]; 13 to 15 days): 100 | Morningglory plant response rating (morningglory [5]; [17]): 100 | Corn plant response rating (0 to 100 scale) (corn; [18]): 80 | Corn plant response rating (corn; [16]): 90 | Pigweed plant response rating (pigweed [6]; [8]): 100 | Pigweed plant response rating (pigweed [6]; [9]): 100 | Plant response rating, Pigweed (pigweed [6]; 13 to 15 days): 100 | Pigweed plant response rating (pigweed [6]; [17]): 100 | Morningglory plant response rating (0 to 100 scale) (morningglory [7]; [18]): 100 | Morningglory plant response rating (morningglory [7]; [16]): 100
